The conditions of this data set: human, in vivo. As to the method:
The reconstituted solution was drawn up in a 10 mL syringe for administration.
This solution was divided into two syringes (1.25 mL per syringe) for administration.
During the infusion, the subjects were kept in a supine position. […] Moreover, all subjects were given a standard lunch at noon, a standard dinner at 6:00 PM and a standard snack at 10:00 PM.
This formulation was administered by gently squirting the solution in the back of the subject's throat. […] All subjects were given a standard lunch at noon, a standard dinner at 6:00 PM and a standard snack at 10:00 PM.
All subjects were given a standard lunch at noon, a standard dinner at 6:00 PM and a standard snack at 10:00 PM.
Non-compartmental modelling of the data was performed.

Like-named read-outs stand apart in the source and are kept apart here.

For `NCCCNCCS` [WR-1065, S-2-(3-Aminopropyl Amino) ethanethiol], the “Relative bioavailability Ratio PO/IV (Metabolite)” value amounted to 0.32 and the “Relative bioavailability Ratio SC/IV (Metabolite)” value is given as 0.71. Moreover, the “time at which WR-1065 concentration fell below 5 μM” value (iv) was “approximately 45 minutes”. In addition, for the setting “sc”, the “time at which WR-1065 concentration fell below 5 μM” value was “approximately 60 minutes”. Also, where the note is “male, iv”, the “peak levels (maximum whole blood concentration)” value is on record as “about 23 μM”; the “time within which whole blood concentrations peaked and declined rapidly” value was not above 10 min. Besides, for the setting “male, sc”, the maximum blood levels was approximately 4 µM; the “time to maximum and sustained whole blood concentration” value was 15 to 45 min.

For the origin of these results see patent publication US7368440B2, “Methods for the administration of amifostine and related compounds” (Medimmune Oncology, Inc., priority 2001, dated 2008).
